In this assay the target is T1, human LPA1 receptor (Homo sapiens, UniProt Q92633).
T1 construct: TEV protease site; Gal4-VP16 transcription factor; host or cells: Tango EDG2-bla U2OS cells
In words: Beta-arrestin recruitment assay to determine IC50 values for human LPAR1. It counts as cell-based. Particulars: Tango EDG2-bla U2OS cells, antagonist assay, LPA 18:1 500 nM final. A digest of the protocol:
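Tango EDG2-bla U2OS cells were preincubated 30 min at 37 °C with compound. They were then stimulated with 500 nM (final) LPA 18:1 for 16 h. β-Lactamase reporter read by LiveBLAzer FRET substrate (2 h) as the 460/530 nm ratio; IC50 from 4-parameter logistic fit.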

T1 sequence (Q92633 whole entry, the tested form may be a part): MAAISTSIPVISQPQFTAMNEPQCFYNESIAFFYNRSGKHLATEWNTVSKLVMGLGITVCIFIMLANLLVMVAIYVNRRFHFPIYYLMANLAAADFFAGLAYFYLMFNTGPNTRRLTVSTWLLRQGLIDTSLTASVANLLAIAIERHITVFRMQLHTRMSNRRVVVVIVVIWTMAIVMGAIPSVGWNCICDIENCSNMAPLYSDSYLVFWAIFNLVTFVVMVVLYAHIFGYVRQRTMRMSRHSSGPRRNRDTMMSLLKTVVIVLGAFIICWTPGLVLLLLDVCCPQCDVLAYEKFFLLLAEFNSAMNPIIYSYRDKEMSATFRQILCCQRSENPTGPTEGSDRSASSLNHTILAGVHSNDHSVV

One may read the IC50 as the concentration at which inhibition is half-maximal. On to `COc1cc(Cl)ncc1NC(=O)C1(c2ccccc2C(C)C)CN(c2ccnc(C)c2F)C1` [Example 24-3, N-(6-chloro-4-methoxypyridin-3-yl)-1-(3-fluoro-2-methylpyridin-4-yl)-3-(2-isopropylphenyl)azetidine-3-carboxamide], for which the IC50 was 2 nM. Take `COc1cc(Cl)ncc1NC(=O)C1(c2ccccc2C(C)C)CN(c2cc(C)ncc2F)C1` [Example 24-4, N-(6-chloro-4-methoxypyridin-3-yl)-1-(5-fluoro-2-methylpyridin-4-yl)-3-(2-isopropylphenyl)azetidine-3-carboxamide]: the half-inhibitory concentration (IC50) amounted to 2 nM.

Consider `COc1cc(Cl)ncc1NC(=O)C1(c2ccccc2C(C)C)CN(c2ccnc(C)c2)C1` [Example 24-5, N-(6-chloro-4-methoxypyridin-3-yl)-3-(2-isopropylphenyl)-1-(2-methylpyridin-4-yl)azetidine-3-carboxamide], for which the half-maximal inhibitory concentration (IC50) was found to be 3 nM. On to `COc1cc(Cl)ncc1NC(=O)C1(c2ccccc2C(C)C)CN(c2cc(C)nc(C)c2)C1` [Example 24-6, N-(6-chloro-4-methoxypyridin-3-yl)-1-(2,6-dimethylpyridin-4-yl)-3-(2-isopropylphenyl)azetidine-3-carboxamide], for which the IC50 stood at 91 nM. Turning to `COc1cc(Cl)ncc1NC(=O)C1(c2ccccc2C(C)C)CN(c2cc(F)ccn2)C1` [Example 24-7, N-(6-chloro-4-methoxypyridin-3-yl)-1-(4-fluoropyridin-2-yl)-3-(2-isopropylphenyl)azetidine-3-carboxamide], the IC50 worked out at 1 nM.

On to `COc1cc(Cl)ncc1NC(=O)C1(c2ccccc2C(C)C)CN(c2ncc(C#N)cn2)C1` [Example 24-8, N-(6-chloro-4-methoxypyridin-3-yl)-1-(5-cyanopyrimidin-2-yl)-3-(2-isopropylphenyl)azetidine-3-carboxamide], for which the IC50 turned out to be 1 nM. `COc1cc(Cl)ncc1NC(=O)C1(c2ccccc2C(C)C)CN(c2ncc(F)cn2)C1` [Example 24-9, N-(6-chloro-4-methoxypyridin-3-yl)-1-(5-fluoropyrimidin-2-yl)-3-(2-isopropylphenyl)azetidine-3-carboxamide]: the IC50 was 8 nM. As to `COc1cc(Cl)ncc1NC(=O)C1(c2ccccc2C(C)C)CN(c2ncncc2F)C1` [Example 24-10, N-(6-chloro-4-methoxypyridin-3-yl)-1-(5-fluoropyrimidin-4-yl)-3-(2-isopropylphenyl)azetidine-3-carboxamide], the concentration for half-maximal inhibition (IC50) turned out to be 2 nM. As to `COc1cc(Cl)ncc1NC(=O)C1(c2ccccc2C(C)C)CN(c2ccncn2)C1` [Example 24-11, N-(6-chloro-4-methoxypyridin-3-yl)-3-(2-isopropylphenyl)-1-(pyrimidin-4-yl)azetidine-3-carboxamide], the IC50 turned out to be 5 nM. The figure for `COc1cc(Cl)ncc1NC(=O)C1(c2ccccc2C(C)C)CN(c2ccnc(C)n2)C1` [Example 24-12, N-(6-chloro-4-methoxypyridin-3-yl)-3-(2-isopropylphenyl)-1-(2-methylpyrimidin-4-yl)azetidine-3-carboxamide] is 7 nM; for `COc1cc(Cl)ncc1NC(=O)C1(c2ccccc2C(C)C)CN(c2ncncc2C)C1` [Example 24-13, N-(6-chloro-4-methoxypyridin-3-yl)-3-(2-isopropylphenyl)-1-(5-methylpyrimidin-4-yl)azetidine-3-carboxamide] it is 5 nM; for `COc1cc(Cl)ncc1NC(=O)C1(c2ccccc2C(C)C)CN(c2cc(C)ncn2)C1` [Example 24-14, N-(6-chloro-4-methoxypyridin-3-yl)-3-(2-isopropylphenyl)-1-(6-methylpyrimidin-4-yl)azetidine-3-carboxamide] it is 8 nM. As to `COc1cc(Cl)ncc1NC(=O)C1(c2ccccc2C(C)C)CN(c2cc(Cl)nc(C)n2)C1` [Example 24-15, 1-(6-chloro-2-methylpyrimidin-4-yl)-N-(6-chloro-4-methoxypyridin-3-yl)-3-(2-isopropylphenyl)azetidine-3-carboxamide], the IC50 turned out to be 29 nM.

Values taken from patent US12479820B2, “Pyridin-3-yl derivatives” (Idorsia Pharmaceuticals Ltd, priority 2019, dated 2025).
